Measurements reported in patent US10851403B2, “Cyclin-dependent kinase substrate” (SYSMEX CORPORATION, priority 2017, dated 2020).
No end group written: not given here. *: point of attachment. Biotin = O=C1N[C@H]2[C@H](CS[C@H]2CCCCC(=O)*)N1; Ahx = NCCCCCC(=O)O

Tests used:
Assay type in all cases: biochemical
CDK4 and CDK6 = assay: CDK reactivity test 2 (Test Example 2), CDK4/6 reactivity; conditions: [(V2/V1)+(V4/V3)]/2; relative value when Comparative Polypeptide 2 is set as 1
Procedure: (§1) In a tube, 15 μL of a CDK solution (composition: 10 μg/mL CDK/cyclin complex, 1% BSA, triethanolamine buffer solution (pH 7.5)) containing CDK1/cyclin A2, CDK2/cyclin E1, CDK4/cyclin D3 or CDK6/cyclin D3 (all manufactured by SignalChem) and 15 μL of a kinase reaction solution (composition: 4 μg/mL substrate peptide, 50 mM HEPES-NaOH buffer solution (pH 7.4), 15 mM MgCl2, 2 mM ATP-γS) containing Polypeptide 1, Comparative Polypeptide 1 or Comparative Polypeptide 2 as a substrate peptide were mixed, and the tube was incubated at 37° C. for 1 hour with stirring at 900 rpm using a constant temperature shaker. 21.4 μL of a fluorescent labeling reagent (composition: 180 μg/ml 5-(iodoacetamide)-FITC, 50 mM EDTA, 300 mM MOPS-NaOH, pH 7.4) was added to the tube and pipetted 5 times, then the tube was shielded from light and incubated at 37° C. for 10 minutes with stirring at 400 rpm using a constant temperature shaker. 100 μL of a fluorescent labeling reaction stop solution (composition: 30 mM N-acetyl-L-cysteine, 2 M MOPS-NaOH, pH 7.4) was added to the tube and pipetted 5 times. 30 μL (containing 0.15 μg of magnetic St-Ab beads) of a HISCL HBsAg R2 reagent (manufactured by Sysmex Corporation) was added to the tube, then the tube was shielded from light and incubated at 37° C. for about 10 minutes with stirring at 1600 rpm using a constant temperature shaker. The beads in the tube were precipitated using a magnet, and the supernatant was removed. Then, TBS-T was added, and the beads were washed at 37° C. for about 10 seconds with stirring at 1600 rpm. This washing step was performed three times in total. 100 μL of an ALP-labeled anti-FITC antibody solution (composition: 0.2 to 1 μg/mL ALP-labeled anti-FITC antibody (manufactured by Jackson ImmunoResearch Laboratories, Inc.), 100 mM MES, 150 mM NaCl, 1% BSA, pH 6.5) was added to the tube, then the tube was shielded from light and incubated at 37° C. for about 10 minutes with stirring at 1600 rpm using a constant temperature shaker. The beads in the tube were precipitated using a magnet, and the supernatant was removed. Then, TBS-T was added, and the beads were washed at 37° C. for about 10 seconds with stirring at 1600 rpm. This washing step was performed three times in total. 50 μL of a buffer solution containing Tris (manufactured by Sysmex Corporation, HISCL R4 reagent) was added to the tube and stirred at 2000 rpm at 37° C. for 10 seconds using a constant temperature shaker. 100 μL of a buffer solution (manufactured by Sysmex Corporation, HISCL R5 reagent) containing an ALP luminescent substrate (disodium 2-chloro-5-(4-methoxyspiro{1,2-dioxetane-3,2′-(5′-chloro)-tricyclo[3.3.1.1^3,7]decan}-4-yl)-1-phenyl phosphate) was added to the tube, then the tube was shielded from light and incubated at 37° C. for 4 minutes with stirring at 1600 rpm using a constant temperature shaker. The beads in the tube were precipitated using a magnet, and the supernatant was transferred to a black plate. Luminescence was detected with a luminometer, and the luminescence intensity was measured.
Test Example 2 was carried out in the same manner as in Test Example 1 except that CDK4 or CDK6 was used as CDK and the polypeptides (Polypeptides 2 to 13) obtained in Production Example 2 or Comparative Polypeptide 2 was used as a substrate peptide. V1 to V4 below:
V 1: luminescence intensity when using Comparative Polypeptide 2 and CDK4,
V 2: luminescence intensity when using any of Polypeptides 2 to 17 and A to E, and CDK4,
V 3: luminescence intensity when using Comparative Polypeptide 2 and CDK6, and
V 4: luminescence intensity when using any of Polypeptides 2 to 17 and A to E, and CDK6
were measured, and CDK4/6 reactivity was calculated based on the formula ([(V2/V1)+(V4/V3)]/2). CDK4/6 reactivity is a relative value when the CDK4/6 reactivity of Comparative Polypeptide 2 is set as 1. […]

CDK2/cyclin E1 = target: T1, CDK2/cyclin E1 (Homo sapiens, UniProt P24941); assay: CDK reactivity test 1 (Test Example 1); conditions: 10 μg/mL CDK/cyclin complex, 4 μg/mL substrate peptide, ATP-γS, 37° C. 1 hour
T1 construct: purchased SignalChem
Procedure: (§2) The reactivity of the polypeptide obtained in Production Example 1 to CDK1, CDK2, CDK4 and CDK6 was examined. Specifically, it was performed as follows.
as §1

CDK6/cyclin D3 = target: T2, CDK6/cyclin D3 (Homo sapiens, UniProt Q00534); assay: CDK reactivity test 1 (Test Example 1); conditions: 10 μg/mL CDK/cyclin complex, 4 μg/mL substrate peptide, ATP-γS, 37° C. 1 hour
T2 construct: purchased SignalChem
Procedure: as §2, §1

CDK1/cyclin A2 = target: T3, CDK1/cyclin A2 (Homo sapiens, UniProt P06493); assay: CDK reactivity test 1 (Test Example 1); conditions: 10 μg/mL CDK/cyclin complex, 4 μg/mL substrate peptide, ATP-γS, 37° C. 1 hour
T3 construct: purchased SignalChem
Procedure: as §2, §1

CDK4/cyclin D3 = target: T4, CDK4/cyclin D3 (Homo sapiens, UniProt P11802); assay: CDK reactivity test 1 (Test Example 1); conditions: 10 μg/mL CDK/cyclin complex, 4 μg/mL substrate peptide, ATP-γS, 37° C. 1 hour
T4 construct: purchased SignalChem
Procedure: as §2, §1

T4 sequence (P11802 whole entry): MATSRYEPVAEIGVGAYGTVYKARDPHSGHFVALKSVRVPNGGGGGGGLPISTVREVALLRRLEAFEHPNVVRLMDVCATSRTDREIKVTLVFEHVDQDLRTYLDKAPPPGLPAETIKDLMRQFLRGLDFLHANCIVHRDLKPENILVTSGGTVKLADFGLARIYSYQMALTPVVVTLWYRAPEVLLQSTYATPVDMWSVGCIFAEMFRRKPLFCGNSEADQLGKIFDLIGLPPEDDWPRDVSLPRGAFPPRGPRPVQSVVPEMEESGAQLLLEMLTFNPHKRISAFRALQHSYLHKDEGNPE
T4 sequence (P30281 whole entry partner): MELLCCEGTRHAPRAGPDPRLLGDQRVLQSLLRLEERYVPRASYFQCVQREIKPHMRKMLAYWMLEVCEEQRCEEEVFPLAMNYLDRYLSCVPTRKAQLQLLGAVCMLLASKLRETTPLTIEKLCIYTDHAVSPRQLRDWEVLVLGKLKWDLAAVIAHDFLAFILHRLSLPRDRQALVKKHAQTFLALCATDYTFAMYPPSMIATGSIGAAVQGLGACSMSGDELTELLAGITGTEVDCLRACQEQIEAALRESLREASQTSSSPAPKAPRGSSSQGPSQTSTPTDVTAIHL
T2 sequence (Q00534 whole entry): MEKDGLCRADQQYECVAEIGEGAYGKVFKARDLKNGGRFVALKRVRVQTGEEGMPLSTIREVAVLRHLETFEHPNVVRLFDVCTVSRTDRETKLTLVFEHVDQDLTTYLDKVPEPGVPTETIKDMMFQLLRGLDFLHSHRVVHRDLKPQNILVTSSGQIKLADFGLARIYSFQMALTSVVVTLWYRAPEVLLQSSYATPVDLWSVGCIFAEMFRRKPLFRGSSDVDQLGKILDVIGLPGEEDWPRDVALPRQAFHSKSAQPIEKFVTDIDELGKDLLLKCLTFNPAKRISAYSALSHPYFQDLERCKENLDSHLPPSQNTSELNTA
T2 sequence (P30281 whole entry partner): as the sequence (P30281 whole entry partner) above
T3 sequence (P06493 whole entry): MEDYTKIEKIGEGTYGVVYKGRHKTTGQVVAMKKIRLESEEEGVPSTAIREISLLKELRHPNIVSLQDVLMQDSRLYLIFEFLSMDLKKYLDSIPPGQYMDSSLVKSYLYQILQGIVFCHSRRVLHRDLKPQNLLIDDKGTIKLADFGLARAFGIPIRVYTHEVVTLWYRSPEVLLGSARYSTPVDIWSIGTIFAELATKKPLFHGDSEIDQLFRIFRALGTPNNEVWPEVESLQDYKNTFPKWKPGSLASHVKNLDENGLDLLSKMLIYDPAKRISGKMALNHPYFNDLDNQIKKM
T3 sequence (P20248 whole entry partner): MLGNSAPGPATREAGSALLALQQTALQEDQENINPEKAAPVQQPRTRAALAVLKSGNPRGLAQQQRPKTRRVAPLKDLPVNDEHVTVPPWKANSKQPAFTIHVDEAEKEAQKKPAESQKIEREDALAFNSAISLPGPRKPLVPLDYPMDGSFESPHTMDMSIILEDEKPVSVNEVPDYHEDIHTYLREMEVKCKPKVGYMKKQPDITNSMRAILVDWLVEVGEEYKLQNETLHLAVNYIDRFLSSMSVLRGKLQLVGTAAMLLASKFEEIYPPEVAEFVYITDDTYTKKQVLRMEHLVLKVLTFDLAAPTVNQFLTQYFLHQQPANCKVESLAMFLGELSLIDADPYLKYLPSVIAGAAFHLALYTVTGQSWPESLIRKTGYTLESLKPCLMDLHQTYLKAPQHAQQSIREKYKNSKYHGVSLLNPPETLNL

Sequence | CDK4/6 Reactivity (CDK4 and CDK6) | also measured
GMPWSPNPWWRGGGG ({Biotin-Ahx}-GMPWSPNPWWRGGGG) [Polypeptide 1, N-terminal residue biotin-modified via a linker (aminohexane)] | 13 | Luminescence intensity (CDK2/cyclin E1): 99,167,362; Luminescence intensity (CDK6/cyclin D3): 122,281,045; Luminescence intensity (CDK1/cyclin A2): 93,190,919; Luminescence intensity (CDK4/cyclin D3): 101,127,359
RRRFRPASPLRGPPK ({Biotin-Ahx}-RRRFRPASPLRGPPK) [Comparative Polypeptide 2, polypeptide known as a substrate of CDK4 and CDK6; N-terminal biotin via aminohexane linker] |  | Luminescence intensity (CDK2/cyclin E1): 16,211,368; Luminescence intensity (CDK6/cyclin D3): 17,316,904; Luminescence intensity (CDK1/cyclin A2): 41,516,306; Luminescence intensity (CDK4/cyclin D3): 5,439,800
GMPASPNPWWRGGGG ({Biotin-Ahx}-GMPASPNPWWRGGGG) [Polypeptide 5, mutant of Polypeptide 1, N-terminal biotin via aminohexane linker] | 1 | 
GMPWSWNPWWRGGGG ({Biotin-Ahx}-GMPWSWNPWWRGGGG) [Polypeptide 15, mutant of Polypeptide 1, N-terminal biotin via aminohexane linker] | 2 | 
AMPWSPAPAARAGGG ({Biotin-Ahx}-AMPWSPAPAARAGGG) [Polypeptide F, mutant of Polypeptide 1, N-terminal biotin via aminohexane linker] | 7 | 
GMAWSPNPWWRGGGG ({Biotin-Ahx}-GMAWSPNPWWRGGGG) [Polypeptide 4, mutant of Polypeptide 1, N-terminal biotin via aminohexane linker] | 5 | 
GMYWSPNPWWRGGGG ({Biotin-Ahx}-GMYWSPNPWWRGGGG) [Polypeptide E, mutant of Polypeptide 1, N-terminal biotin via aminohexane linker] | 6 | 
GMPWSPNPWWKGGGG ({Biotin-Ahx}-GMPWSPNPWWKGGGG) [Polypeptide B, mutant of Polypeptide 1, N-terminal biotin via aminohexane linker] | 5 | 
GMPWSPNPWWHGGGG ({Biotin-Ahx}-GMPWSPNPWWHGGGG) [Polypeptide A, mutant of Polypeptide 1, N-terminal biotin via aminohexane linker] | 7 | 
GMPWSANPWWRGGGG ({Biotin-Ahx}-GMPWSANPWWRGGGG) [Polypeptide 6, mutant of Polypeptide 1, N-terminal biotin via aminohexane linker] | 1 | 
GMPWSPNPWWRAGGG ({Biotin-Ahx}-GMPWSPNPWWRAGGG) [Polypeptide 12, mutant of Polypeptide 1, N-terminal biotin via aminohexane linker] | 6 | 
GMFWSPNPWWRGGGG ({Biotin-Ahx}-GMFWSPNPWWRGGGG) [Polypeptide D, mutant of Polypeptide 1, N-terminal biotin via aminohexane linker] | 5 | 
GMPWSPAPWWRGGGG ({Biotin-Ahx}-GMPWSPAPWWRGGGG) [Polypeptide 7, mutant of Polypeptide 1, N-terminal biotin via aminohexane linker] | 8 | 
GMPYSPNPWWRGGGG ({Biotin-Ahx}-GMPYSPNPWWRGGGG) [Polypeptide 14, mutant of Polypeptide 1, N-terminal biotin via aminohexane linker] | 5 | 
GMPWSFNPWWRGGGG ({Biotin-Ahx}-GMPWSFNPWWRGGGG) [Polypeptide 16, mutant of Polypeptide 1, N-terminal biotin via aminohexane linker] | 2 | 
PYKISEGLPTPTKMTPRSRI ({Biotin-Ahx}-PYKISEGLPTPTKMTPRSRI) [Comparative Polypeptide 1, partial peptide of Rb protein which is an in vivo substrate of CDK; N-terminal biotin via aminohexane linker] |  | Luminescence intensity (CDK2/cyclin E1): 104,410,578; Luminescence intensity (CDK6/cyclin D3): 7,417,238; Luminescence intensity (CDK1/cyclin A2): 67,564,327; Luminescence intensity (CDK4/cyclin D3): 810,674
GMPWSYNPWWRGGGG ({Biotin-Ahx}-GMPWSYNPWWRGGGG) [Polypeptide 17, mutant of Polypeptide 1, N-terminal biotin via aminohexane linker] | 2 | 
GMPWSPNPWARGGGG ({Biotin-Ahx}-GMPWSPNPWARGGGG) [Polypeptide 10, mutant of Polypeptide 1, N-terminal biotin via aminohexane linker] | 15 | 
GMWWSPNPWWRGGGG ({Biotin-Ahx}-GMWWSPNPWWRGGGG) [Polypeptide C, mutant of Polypeptide 1, N-terminal biotin via aminohexane linker] | 5 | 
GAPWSPNPWWRGGGG ({Biotin-Ahx}-GAPWSPNPWWRGGGG) [Polypeptide 3, mutant of Polypeptide 1, N-terminal biotin via aminohexane linker] | 33 | 
GMPFSPNPWWRGGGG ({Biotin-Ahx}-GMPFSPNPWWRGGGG) [Polypeptide 13, mutant of Polypeptide 1, N-terminal biotin via aminohexane linker] | 5 | 
GMPWSPNPWWAGGGG ({Biotin-Ahx}-GMPWSPNPWWAGGGG) [Polypeptide 11, mutant of Polypeptide 1, N-terminal biotin via aminohexane linker] | 3 | 
GMPWSPNAWWRGGGG ({Biotin-Ahx}-GMPWSPNAWWRGGGG) [Polypeptide 8, mutant of Polypeptide 1, N-terminal biotin via aminohexane linker] | 7 | 
GMPWSPNPAWRGGGG ({Biotin-Ahx}-GMPWSPNPAWRGGGG) [Polypeptide 9, mutant of Polypeptide 1, N-terminal biotin via aminohexane linker] | 7 | 
AMPWSPNPWWRGGGG ({Biotin-Ahx}-AMPWSPNPWWRGGGG) [Polypeptide 2, mutant of Polypeptide 1, N-terminal biotin via aminohexane linker] | 15 | 
